Measurements taken from PubChem BioAssay AID248 (DTP/NCI, 2004).
“And” between values parts separate entries of the source, which are not always exact repeats. Identical values can stand only once. Toxic doses and inconclusive results are not listed. Rule as the data show it: active = T/C of 150% or more; inactive = T/C below 125%.

System: L1210 leukemia ip in BDF1 mice, survival T/C
Experiment: NCI In Vivo Anticancer Drug Screen. Data for tumor model L1210 Leukemia (intraperitoneal) in B6D2F1 (BDF1) mice
Conditions: higher = longer survival
In short: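 Ratio derived from survival: compound-dosed mice over vehicle-dosed mice, all bearing a transplantable tumor.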

[1] = endpoint: mean survival time, dose: 50.0 mg/kg/injection, schedule: Q01DX009 (ip), vehicle: saline with Tween-80
[2] = endpoint: mean survival time, dose: 100.0 mg/kg/injection, schedule: Q01DX009 (ip), vehicle: saline with Tween-80
[3] = endpoint: mean survival time, dose: 100.0 mg/kg/injection, schedule: Q01DX001 (ip), vehicle: saline
[4] = endpoint: mean survival time, dose: 200.0 mg/kg/injection, schedule: Q01DX001 (ip), vehicle: saline
[5] = endpoint: mean survival time, dose: 400.0 mg/kg/injection, schedule: Q01DX001 (ip), vehicle: saline
[6] = endpoint: mean survival time, dose: 50.0 mg/kg/injection, schedule: Q01DX001 (ip), vehicle: saline
[7] = endpoint: mean survival time, dose: 100.0 mg/kg/injection, schedule: Q01DX001 (ip), vehicle: carboxymethylcellulose (CMC)
[8] = endpoint: mean survival time, dose: 200.0 mg/kg/injection, schedule: Q01DX001 (ip), vehicle: carboxymethylcellulose (CMC)
[9] = endpoint: mean survival time, dose: 400.0 mg/kg/injection, schedule: Q01DX001 (ip), vehicle: carboxymethylcellulose (CMC)
[10] = endpoint: mean survival time, dose: 100.0 mg/kg/injection, schedule: Q01DX009 (ip), vehicle: saline
[11] = endpoint: mean survival time, dose: 200.0 mg/kg/injection, schedule: Q01DX009 (ip), vehicle: saline
[12] = endpoint: mean survival time, dose: 200.0 mg/kg/injection, schedule: Q01DX009 (ip), vehicle: saline with Tween-80
[13] = endpoint: mean survival time, dose: 50.0 mg/kg/injection, schedule: Q01DX009 (ip), vehicle: saline

Measured: T/C

O=C1SC(c2ccccc2)(c2ccccc2)c2cscc21
inactive: [1] 86 % of control | [2] 86 % of control

CCOC(=O)c1cc([N+](=O)[O-])ccc1N
inactive: [3] 100 % of control | [4] 94 % of control | [5] 94 % of control

O=c1cc2ccccc2c(O)[nH]1
inactive: endpoint: mean survival time, dose: 25.0 mg/kg/injection, schedule: Q01DX001 (ip), vehicle: saline 107 % of control | [6] 111 % of control | endpoint: mean survival time, dose: 100.0 mg/kg/injection, schedule: Q01DX001 (ip), vehicle: Klucel (hydroxypropylcellulose) (HPC) 100 % of control | [3] 114 % of control

CCCCCCCCCCCCSCCSCCCCCCCCCCCC
inactive: [7] 93 % of control | [8] 86 % of control | [9] 102 % of control

O=C1CN(Br)C(=O)N1Br
inactive: [10] 105 % of control | endpoint: mean survival time, dose: 100.0 mg/kg/injection, schedule: Q04DX003 (ip), vehicle: saline 98 % of control | [11] 107 % of control | endpoint: mean survival time, dose: 200.0 mg/kg/injection, schedule: Q04DX003 (ip), vehicle: saline 105 % of control | endpoint: mean survival time, dose: 400.0 mg/kg/injection, schedule: Q04DX003 (ip), vehicle: saline 100 % of control

O=C(NCc1cnccn1)c1ccccc1Cl
inactive: [2] 86 % of control | endpoint: mean survival time, dose: 100.0 mg/kg/injection, schedule: Q04DX003 (ip), vehicle: saline with Tween-80 96 % of control | [12] 104 % of control | endpoint: mean survival time, dose: 200.0 mg/kg/injection, schedule: Q04DX003 (ip), vehicle: saline with Tween-80 96 % of control | endpoint: mean survival time, dose: 400.0 mg/kg/injection, schedule: Q01DX009 (ip), vehicle: saline with Tween-80 102 % of control | endpoint: mean survival time, dose: 400.0 mg/kg/injection, schedule: Q04DX003 (ip), vehicle: saline with Tween-80 104 % of control

ClCCN(CCCl)c1ccc(C=Nc2cccc(Cl)c2)cc1
inactive: endpoint: mean survival time, dose: 50.0 mg/kg/injection, schedule: Q01DX001 (ip), vehicle: carboxymethylcellulose (CMC) 100 % of control | [7] 100 % of control | [8] 105 % of control | [9] 105 % of control

O=C(O)/C=C\C(=O)NNC(=O)/C=C\C(=O)O
inactive: [1] 101 % of control | [13] 100 % of control | [2] 96 % of control | [10] 100 % of control | [12] 104 % of control | [11] 93 % of control

CCN1/C(=C/C(C)=C/c2[se]c3ccc(C)cc3[n+]2CC)[Se]c2ccc(C)cc21
inactive: endpoint: mean survival time, dose: 2.0 mg/kg/injection, schedule: Q01DX001 (ip), vehicle: other 109 % of control | endpoint: mean survival time, dose: 4.0 mg/kg/injection, schedule: Q01DX001 (ip), vehicle: other 114 % of control

CC(=O)C=O
inactive: endpoint: mean survival time, dose: 12.5 mg/kg/injection, schedule: Q01DX009 (ip), vehicle: saline 98 % of control | endpoint: mean survival time, dose: 20.5 mg/kg/injection, schedule: Q01DX006 (ip), vehicle: saline 100 % of control | endpoint: mean survival time, dose: 20.5 mg/kg/injection, schedule: Q ##X009 (ip), vehicle: saline 102 % of control | endpoint: mean survival time, dose: 20.5 mg/kg/injection, schedule: Q## X Z (ip), vehicle: saline 101 % of control | endpoint: mean survival time, dose: 25.0 mg/kg/injection, schedule: Q01DX009 (ip), vehicle: saline 88 % of control | endpoint: mean survival time, dose: 29.5 mg/kg/injection, schedule: Q01DX006 (ip), vehicle: saline 105 % of control | endpoint: mean survival time, dose: 29.5 mg/kg/injection, schedule: Q ##X009 (ip), vehicle: saline 98 % of control | endpoint: mean survival time, dose: 29.5 mg/kg/injection, schedule: Q## X Z (ip), vehicle: saline 97 % of control | endpoint: mean survival time, dose: 41.0 mg/kg/injection, schedule: Q03DX002 (ip), vehicle: saline 107 % of control | endpoint: mean survival time, dose: 42.0 mg/kg/injection, schedule: Q01DX006 (ip), vehicle: saline 96 % of control | endpoint: mean survival time, dose: 42.0 mg/kg/injection, schedule: Q ##X009 (ip), vehicle: saline 110 % of control | endpoint: mean survival time, dose: 42.0 mg/kg/injection, schedule: Q## X Z (ip), vehicle: saline 110 % of control | [13] 93 % of control | endpoint: mean survival time, dose: 50.0 mg/kg/injection, schedule: Q01DX009 (ip), vehicle: water 110 % of control | endpoint: mean survival time, dose: 60.0 mg/kg/injection, schedule: Q01DX006 (ip), vehicle: saline 106 % of control and 107 % of control | endpoint: mean survival time, dose: 60.0 mg/kg/injection, schedule: Q ##X009 (ip), vehicle: saline 91 % of control | endpoint: mean survival time, dose: 60.0 mg/kg/injection, schedule: Q## X Z (ip), vehicle: saline 91 % of control | endpoint: mean survival time, dose: 71.0 mg/kg/injection, schedule: Q03DX002 (ip), vehicle: saline 118 % of control | endpoint: mean survival time, dose: 75.0 mg/kg/injection, schedule: Q01DX009 (ip), vehicle: water 113 % of control | endpoint: mean survival time, dose: 93.0 mg/kg/injection, schedule: Q01DX001 (ip), vehicle: saline 113 % of control | [10] 97 % of control | endpoint: mean survival time, dose: 100.0 mg/kg/injection, schedule: Q01DX009 (ip), vehicle: water 110 % of control | endpoint: mean survival time, dose: 107.0 mg/kg/injection, schedule: Q03DX002 (ip), vehicle: saline 116 % of control | endpoint: mean survival time, dose: 127.0 mg/kg/injection, schedule: Q01DX001 (ip), vehicle: saline 123 % of control | endpoint: mean survival time, dose: 150.0 mg/kg/injection, schedule: Q01DX009 (ip), vehicle: water 103 % of control | endpoint: mean survival time, dose: 160.0 mg/kg/injection, schedule: Q03DX002 (ip), vehicle: saline 111 % of control | [4] 97 % of control | [11] 104 % of control | endpoint: mean survival time, dose: 200.0 mg/kg/injection, schedule: Q01DX009 (ip), vehicle: water 91 % of control | endpoint: mean survival time, dose: 400.0 mg/kg/injection, schedule: Q01DX009 (ip), vehicle: saline 111 % of control | endpoint: median survival time, dose: 35.0 mg/kg/injection, schedule: Q01DX005 (ip), vehicle: other 104 % of control | endpoint: median survival time, dose: 35.0 mg/kg/injection, schedule: Q01DX005 (ip), vehicle: saline sonified 105 % of control | endpoint: median survival time, dose: 44.0 mg/kg/injection, schedule: Q01DX005 (ip), vehicle: other 104 % of control | endpoint: median survival time, dose: 44.0 mg/kg/injection, schedule: Q01DX005 (ip), vehicle: saline sonified 105 % of control | endpoint: median survival time, dose: 55.0 mg/kg/injection, schedule: Q01DX005 (ip), vehicle: other 106 % of control | endpoint: median survival time, dose: 55.0 mg/kg/injection, schedule: Q01DX005 (ip), vehicle: saline sonified 111 % of control | endpoint: median survival time, dose: 69.0 mg/kg/injection, schedule: Q01DX005 (ip), vehicle: other 107 % of control | endpoint: median survival time, dose: 69.0 mg/kg/injection, schedule: Q01DX005 (ip), vehicle: saline sonified 111 % of control | endpoint: median survival time, dose: 86.0 mg/kg/injection, schedule: Q01DX005 (ip), vehicle: other 110 % of control | endpoint: median survival time, dose: 86.0 mg/kg/injection, schedule: Q01DX005 (ip), vehicle: saline sonified 111 % of control | endpoint: median survival time, dose: 175.0 mg/kg/injection, schedule: Q01DX001 (ip), vehicle: other 101 % of control | endpoint: median survival time, dose: 175.0 mg/kg/injection, schedule: Q01DX001 (ip), vehicle: saline sonified 100 % of control | endpoint: median survival time, dose: 194.0 mg/kg/injection, schedule: Q01DX001 (ip), vehicle: other 101 % of control | endpoint: median survival time, dose: 194.0 mg/kg/injection, schedule: Q01DX001 (ip), vehicle: saline sonified 100 % of control | endpoint: median survival time, dose: 216.0 mg/kg/injection, schedule: Q01DX001 (ip), vehicle: other 98 % of control | endpoint: median survival time, dose: 216.0 mg/kg/injection, schedule: Q01DX001 (ip), vehicle: saline sonified 100 % of control | endpoint: median survival time, dose: 240.0 mg/kg/injection, schedule: Q01DX001 (ip), vehicle: other 118 % of control | endpoint: median survival time, dose: 240.0 mg/kg/injection, schedule: Q01DX001 (ip), vehicle: saline sonified 116 % of control | endpoint: median survival time, dose: 268.0 mg/kg/injection, schedule: Q01DX001 (ip), vehicle: other 107 % of control | endpoint: median survival time, dose: 268.0 mg/kg/injection, schedule: Q01DX001 (ip), vehicle: saline sonified 105 % of control | endpoint: median survival time, dose: 298.0 mg/kg/injection, schedule: Q01DX001 (ip), vehicle: other 116 % of control | endpoint: median survival time, dose: 298.0 mg/kg/injection, schedule: Q01DX001 (ip), vehicle: saline sonified 116 % of control

COc1ccc(OC)c2c(C)c(C)[nH]c12
inactive: [6] 98 % of control | [3] 93 % of control | [4] 109 % of control | [5] 106 % of control
